#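 Five concentrations, 48 hours, 96-well plates. At the GI50, growth is halved. Definition used: TGI = concentration required for complete inhibition of growth.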
# What was measured:
# Experiment in all cases: NCI-60 cell line screen, 48 h
# A549 NSCLC = test system: A549 NSCLC
# ACHN renal = test system: ACHN renal
# DU-145 prostate = test system: DU-145 prostate
# HCT-15 colon = test system: HCT-15 colon
# KM12 colon = test system: KM12 colon
# MDA-MB-231 breast = test system: MDA-MB-231 breast
# NCI-H226 lung = test system: NCI-H226 lung
# SF-539 CNS = test system: SF-539 CNS
# A498 renal = test system: A498 renal
# HS 578T breast = test system: HS 578T breast
SMILES,GI50 (A549 NSCLC) [µM],TGI (A549 NSCLC) [µM],GI50 (ACHN renal) [µM],TGI (ACHN renal) [µM],GI50 (DU-145 prostate) [µM],TGI (DU-145 prostate) [µM],GI50 (HCT-15 colon) [µM],TGI (HCT-15 colon) [µM],GI50 (KM12 colon) [µM],TGI (KM12 colon) [µM],GI50 (MDA-MB-231 breast) [µM],TGI (MDA-MB-231 breast) [µM],GI50 (NCI-H226 lung) [µM],TGI (NCI-H226 lung) [µM],GI50 (SF-539 CNS) [µM],TGI (SF-539 CNS) [µM],TGI (A498 renal) [µM],TGI (HS 578T breast) [µM],GI50 (A498 renal) [µM],GI50 (HS 578T breast) [µM]
O=C(O)c1ccc2c(c1Nc1ccccc1)C(=O)c1ccccc1C2=O,51.2,> 100,39.7,> 100,82.8,> 100,72.8,> 100,61.1,> 100,46.2,> 100,24.2,> 100,56.2,> 100,,,,
O=c1c2ccccc2nc(-c2ccc(Br)cc2)n1NC1OC(CO)C(O)C(O)C1O (configuration not stated),,> 100,,> 100,,,,> 100,,> 100,,,,> 100,,> 100,> 100,,,
O=C1N=C(c2ccccc2)OC1C(=O)c1ccccc1 (configuration not stated),,> 100,,> 100,,> 100,,> 100,,> 100,,> 100,,> 100,,,> 100,> 100,,
N=C1N(c2ccccc2)C(=O)C23CCCC2C13N1CCOCC1 (configuration not stated),,> 100,,> 100,,,,> 100,,> 100,,,,> 100,,> 100,,,,
Cc1ccc([N+](=O)[O-])cc1NC(=O)C(=O)Cc1occc(=O)c1O,,> 100,,> 100,,,,> 100,,> 100,,,,> 100,,> 100,> 100,,,
COc1ccc(N(CC(=O)NCCC[Te]c2ccccc2)C(=O)CCSC2=C(C)C(=O)c3ccccc3C2=O)cc1,0.302,1.07,1.57,3.47,1.44,3.24,0.673,3.21,0.702,2.18,1.22,3.46,,,1.88,3.65,4.61,6.69,1.96,1.56
C[C@@H](CO)OCOCc1ccccc1,,> 100,,,,,,> 100,,> 100,,,,,,> 100,> 100,,,
COC(=O)C1=CN=C(C(=O)OC)NN1,,> 100,,> 100,,,,> 100,,> 100,,,,> 100,,> 100,,,,
C/C=C/C=N/N(C(=O)c1cc([N+](=O)[O-])cc([N+](=O)[O-])c1)C1=NC(c2ccccc2)C(c2ccccc2)=NN1 (configuration not stated),,> 100,,> 100,,,,> 100,,> 100,,,,> 100,,> 100,> 100,,,
Cc1cc(C)c(O)c(Cc2cccc(Cc3cc(C)cc(C)c3O)c2O)c1,,> 100,,> 100,,> 100,,> 100,,> 100,,> 100,,,,> 100,> 100,> 100,,
Cc1oc2c(C)c(O)c3c(c2c1C1(C)OCCO1)C(=O)C=C(Cl)C3=O,,> 100,,> 100,,,,> 100,,> 100,,,,> 100,,> 100,> 100,,,

# Source: PubChem BioAssay (NCI)
